Laboratory results from PubChem BioAssay (NCI).
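1) Cells in 96-well plates. 2) Compound, 48 h, 5 concentrations. 3) Linear interpolation between surrounding doses. 4) Unreached endpoint = highest concentration. The concentration for 50% growth inhibition is given as GI50. TGI is the concentration that stops growth completely.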

How the values were obtained:
Experiment in all cases: DTP human tumour cell line panel, 48 h
[1] = system: 786-0 renal
[2] = system: A498 renal
[3] = system: A549 NSCLC
[4] = system: ACHN renal
[5] = system: BT-549 breast
[6] = system: CAKI-1 renal
[7] = system: CCRF-CEM leukemia
[8] = system: COLO 205 colon
[9] = system: DU-145 prostate
[10] = system: EKVX NSCLC
[11] = system: HCC-2998 colon
[12] = system: HCT-116 colon
[13] = system: HCT-15 colon
[14] = system: HL-60(TB) leukemia
[15] = system: HOP-62 NSCLC
[16] = system: HOP-92 NSCLC
[17] = system: HS 578T breast
[18] = system: HT29 colon
[19] = system: IGROV1 ovarian
[20] = system: K-562 leukemia
[21] = system: KM12 colon
[22] = system: LOX IMVI melanoma
[23] = system: M14 melanoma
[24] = system: MALME-3M melanoma
[25] = system: MCF7 breast
[26] = system: MDA-MB-231 breast
[27] = system: MDA-MB-435
[28] = system: MOLT-4 leukemia
[29] = system: NCI-H226 lung

Work on `Cc1cccc(CN(C)c2ccc(CO)c(Cl)c2)c1` yielded a GI50 [1] of 13.2 µM, a TGI [1] of 34.1 µM and a GI50 [2] of 0.0433 µM. It also gave a TGI [2] of 0.184 µM, a GI50 [3] of 4.58 µM and a TGI [3] of 34.4 µM. The GI50 [4] was 32.7 µM, the TGI [4] was > 100 µM and the GI50 [5] was 15.8 µM. The TGI [5] was 42.9 µM, the GI50 [6] was 3.71 µM and the TGI [6] was 44.3 µM. For the same compound, the GI50 [7] was 27 µM, the TGI [7] was > 100 µM and the GI50 [8] was 4.86 µM. The TGI [8] was 17.7 µM, the GI50 [9] was 30.8 µM and the TGI [9] was > 100 µM. It also gave a GI50 [10] of 22.6 µM, a TGI [10] of 90.1 µM and a GI50 [11] of 15.9 µM. It also gave a TGI [11] of 52.9 µM, a GI50 [12] of 0.549 µM and a TGI [12] of 12.3 µM. The GI50 [13] was 19.8 µM, the TGI [13] was > 100 µM and the GI50 [14] was 23.8 µM. The TGI [14] was 82.6 µM, the GI50 [15] was 7.41 µM and the TGI [15] was 40.6 µM. For the same compound, the GI50 [16] was 3.46 µM, the TGI [16] was 28.2 µM and the GI50 [17] was 22.5 µM. For the same compound, the TGI [17] was > 83.3 µM, the GI50 [18] was 11.9 µM and the TGI [18] was > 55.3 µM. It also gave a GI50 [19] of 0.475 µM, a TGI [19] of 2.67 µM and a GI50 [20] of 8.76 µM. For the same compound, the TGI [20] was > 100 µM, the GI50 [21] was 22.5 µM and the TGI [21] was 72.4 µM. The GI50 [22] was 18 µM, the TGI [22] was 40.4 µM and the GI50 [23] was 20.6 µM. For the same compound, the TGI [23] was > 65.9 µM, the GI50 [24] was 19.5 µM and the TGI [24] was 49.8 µM. The GI50 [25] was 1.54 µM, the TGI [25] was 21.3 µM and the GI50 [26] was 21.9 µM. For the same compound, the TGI [26] was > 86.2 µM, the GI50 [27] was 17.2 µM and the TGI [27] was 49.3 µM. For the same compound, the GI50 [28] was 22.2 µM, the TGI [28] was > 75.5 µM and the GI50 [29] was 0.123 µM. For the same compound, the TGI [29] was 0.279 µM.
